Results from patent US9650395B2, “Antibacterial compounds and methods for use” (PTC Therapeutics, Inc., priority 2011, dated 2017).
Values after ≈ are worked out from the molar mass of the structure shown.

Assays:
[1] = tested on: resistant A. baumannii MXX2240 (MDR clinical isolate); experiment: Antibacterial activity, MIC, resistant A. baumannii MXX2240; format: cell-based, Acinetobacter baumannii; conditions: resistant A. baumannii MMX2240, MDR clinical isolate; for MIC: Acinetobacter baumannii, read-out: MIC MMX2240
[2] = tested on: resistant K. pneumoniae MXX1232 (MDR clinical isolate); experiment: Antibacterial activity, MIC, resistant K. pneumoniae MXX1232; format: cell-based, Klebsiella pneumoniae; conditions: Klebsiella pneumoniae; resistant K. pneumoniae MMX1232, MDR clinical isolate; read-out: MIC MMX1232
[3] = tested on: Pseudomonas aeruginosa (P. aeruginosa) 27853; experiment: Antibacterial activity, MIC, P. aeruginosa 27853; format: cell-based; conditions: P. aeruginosa 27853; for MIC: Pseudomonas aeruginosa, read-out: MIC 27853
Source text: (§1) The antibacterial activity from a microbroth dilution method may be presented as the minimum inhibitory concentration (MIC in […]). The MIC value is the lowest concentration of a drug which prevents macroscopically visible bacterial growth under test conditions.
Antibacterial activity of test compounds against the Gram-negative bacterium Pseudomonas aeruginosa (P. aeruginosa) 27853 is shown in Table 5.

[4] = tested on: Acinetobacter baumannii (A. baumannii) BAA747; experiment: Antibacterial activity, MIC, A. baumannii BAA747; format: cell-based; conditions: A. baumannii BAA747; for MIC: Acinetobacter baumannii, read-out: MIC BAA747
[5] = tested on: quinolone resistant E. coli LZ3111; experiment: Antibacterial activity, MIC, quinolone resistant E. coli LZ3111; format: cell-based, Escherichia coli; conditions: for MIC: Escherichia coli, read-out: MIC, LZ3111
Source text: as §1
Mutations in these regions are known to confer a high level resistance to the quinolone class of antibiotics.

[6] = tested on: super sensitive Gram-negative Escherichia coli (E. coli) BAS849; experiment: Antibacterial activity, microbroth dilution MIC, E. coli BAS849; format: cell-based; conditions: E. coli BAS849, microbroth dilution; for MIC: Escherichia coli, read-out: MIC, BAS849
[7] = tested on: Klebsiella pneumoniae (K. pneumoniae) 35657; experiment: Antibacterial activity, MIC, K. pneumoniae 35657; format: cell-based; conditions: for MIC: Klebsiella pneumoniae
[8] = tested on: control Gram-negative E. coli 25922 strain; experiment: Antibacterial activity, microbroth dilution MIC, E. coli 25922; format: cell-based, Escherichia coli; conditions: E. coli 25922, microbroth dilution; for MIC: Escherichia coli, read-out: MIC, 25922
[9] = tested on: Gram-positive Staphylococcus aureus (S. aureus) 29213; experiment: Antibacterial activity, microbroth dilution MIC, S. aureus 29213; format: cell-based; conditions: S. aureus 29213, microbroth dilution; for MIC: Staphylococcus aureus, read-out: MIC, 29213
[10] = tested on: Moraxella catarrhalis (M. catarrhalis) 25238; experiment: Antibacterial activity, MIC, M. catarrhalis 25238; format: cell-based; conditions: M. catarrhalis 25238
[11] = tested on: Haemophilus influenzae (H. influenzae) 49247; experiment: Antibacterial activity, MIC, H. influenzae 49247; format: cell-based; conditions: H. influenzae 49247
Outline: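 Antibacterial activity against the Gram-negative organism Haemophilus influenzae strain 49247 was measured by microbroth dilution. The minimum inhibitory concentration (MIC) was taken as the lowest drug concentration that stopped bacterial growth from being visible to the naked eye under the test conditions.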

[12] = tested on: Neisseria meningitidis (N. meningitidis) 13090; experiment: Antibacterial activity, MIC, N. meningitidis 13090; format: cell-based; conditions: N. meningitidis 13090
[13] = tested on: E. coli ELZ4000 (MDR clinical isolate); experiment: Antibacterial activity, MIC, MDR E. coli ELZ4000; format: cell-based, Escherichia coli; conditions: E. coli ELZ4000, MDR clinical isolate; for MIC: Escherichia coli, read-out: MIC ELZ4000
[14] = tested on: E. coli ELZ4251 (MDR clinical isolate); experiment: Antibacterial activity, MIC, MDR E. coli ELZ4251; format: cell-based, Escherichia coli; conditions: E. coli ELZ4251, MDR clinical isolate

| Compound | MIC [1] | MIC [2] | MIC [3] | MIC [4] | MIC [5] | MIC [6] | MIC [7] | MIC [8] | MIC [9] | other results |
| --- | --- | --- | --- | --- | --- | --- | --- | --- | --- | --- |
| CCc1cc(C(=O)O)c(=O)[nH]c1-c1ccc(N2CCC(NC3CC3)C2)cc1 (stereo not drawn) [Cpd 173, 6-{4-[3-(cyclopropylamino)pyrrolidin-1-yl]phenyl}-5-ethyl-2-oxo-1,2-dihydropyridine-3-carboxylic acid] | 12.5 to 150 µg/mL (≈ 34 to 408 µM) | 12.5 to 150 µg/mL (≈ 34 to 408 µM) | 12.5 to 150 µg/mL (≈ 34 to 408 µM) | 3.5 to 12.5 µg/mL (≈ 9.53 to 34 µM) | 12.5 to 150 µg/mL (≈ 34 to 408 µM) | < 1 µg/mL | 1 to 3.5 µg/mL (≈ 2.72 to 9.53 µM) | 1 to 3.5 µg/mL (≈ 2.72 to 9.53 µM) | 12.5 to 150 µg/mL (≈ 34 to 408 µM) | – |
| CCc1cc(C(=O)O)c(=O)[nH]c1-c1ccc(N2CCC(c3ccncc3)C2)cc1 (stereo not drawn) [Cpd 226, 5-ethyl-2-oxo-6-{4-[3-(pyridin-4-yl)pyrrolidin-1-yl]phenyl}-1,2-dihydropyridine-3-carboxylic acid] | 12.5 to 150 µg/mL (≈ 32.1 to 385 µM) | 12.5 to 150 µg/mL (≈ 32.1 to 385 µM) | 12.5 to 150 µg/mL (≈ 32.1 to 385 µM) | 1 to 3.5 µg/mL (≈ 2.57 to 8.99 µM) | 12.5 to 150 µg/mL (≈ 32.1 to 385 µM) | < 1 µg/mL | 3.5 to 12.5 µg/mL (≈ 8.99 to 32.1 µM) | 1 to 3.5 µg/mL (≈ 2.57 to 8.99 µM) | 3.5 to 12.5 µg/mL (≈ 8.99 to 32.1 µM) | – |
| CCc1cc(C(=O)O)c(=O)[nH]c1-c1ccc(N2CCC(c3ccccn3)C2)cc1 (stereo not drawn) [Cpd 227, 5-ethyl-2-oxo-6-{4-[3-(pyridin-2-yl)pyrrolidin-1-yl]phenyl}-1,2-dihydropyridine-3-carboxylic acid] | 12.5 to 150 µg/mL (≈ 32.1 to 385 µM) | 12.5 to 150 µg/mL (≈ 32.1 to 385 µM) | 3.5 to 12.5 µg/mL (≈ 8.99 to 32.1 µM) | 1 to 3.5 µg/mL (≈ 2.57 to 8.99 µM) | 12.5 to 150 µg/mL (≈ 32.1 to 385 µM) | < 1 µg/mL | 3.5 to 12.5 µg/mL (≈ 8.99 to 32.1 µM) | 1 to 3.5 µg/mL (≈ 2.57 to 8.99 µM) | 1 to 3.5 µg/mL (≈ 2.57 to 8.99 µM) | – |
| CN[C@@H]1CCC[C@@H]2CN(c3ccc(-c4[nH]c(=O)c(C(=O)O)c(O)c4C)cc3)C[C@@H]21.Cl [Cpd 260, 4-hydroxy-5-methyl-6-{4-[(3aR,4R,7aS)-4-(methylamino)octahydro-2H-isoiridol-2-yl]phenyl}-2-oxo-1,2-dihydropyridine-3-carboxylic acid hydrochloride] | – | – | – | – | – | – | – | – | – | MIC 25238 [10]: ** (an MIC value between >3.5 μg/mL and ≦12.5 μg/mL is indicated by two stars (**)); MIC 49247 [11]: * (an MIC value between >12.5 μg/mL and ≦150 μg/mL is indicated by a single star (*)); MIC 27853 [3]: * (an MIC value between >12.5 μg/mL and ≦150 μg/mL is indicated by a single star (*)); MIC BAA747 [4]: * (an MIC value between >12.5 μg/mL and ≦150 μg/mL is indicated by a single star (*)); MIC 13090 [12]: *** (an MIC value between >1.0 μg/mL and ≦3.5 μg/mL is indicated by three stars (***)); MIC ELZ4000 [13]: ** (an MIC value between >3.5 μg/mL and ≦12.5 μg/mL is indicated by two stars (**)); MIC ELZ4251 [14]: *** (an MIC value between >1.0 μg/mL and ≦3.5 μg/mL is indicated by three stars (***)); MIC, LZ3111 ([5]; quinolone resistant E. coli LZ3111): **** (an MIC value of ≦1.0 μg/mL is indicated by four stars (****)); MIC, BAS849 [6]: ** (an MIC value between >3.5 μg/mL and ≦12.5 μg/mL is indicated by two stars (**)); MIC 35657 [7]: ** (an MIC value between >3.5 μg/mL and ≦12.5 μg/mL is indicated by two stars (**)); MIC, 25922 [8]: ** (an MIC value between >3.5 μg/mL and ≦12.5 μg/mL is indicated by two stars (**)); MIC, 29213 [9]: *** (an MIC value between >1.0 μg/mL and ≦3.5 μg/mL is indicated by three stars (***)) |
| CCc1c(-c2ccc(N3C[C@H]4CCCC[C@@]4(CN(C)C)C3)cc2)[nH]c(=O)c(C(=O)O)c1O.Cl [Cpd 266, 6-(4-{(3aR,7aS)-3a-[(dimethylamino)methyl]octahydro-2H-isoindol-2-yl}phenyl)-5-ethyl-4-hydroxy-2-oxo-1,2-dihydropyridine-3-carboxylic acid hydrochloride] | – | – | 12.5 to 150 µg/mL | 12.5 to 150 µg/mL | 3.5 to 12.5 µg/mL | 1 to 3.5 µg/mL | 12.5 to 150 µg/mL | 12.5 to 150 µg/mL | 3.5 to 12.5 µg/mL | MIC [13]: 12.5 to 150 µg/mL; MIC ([14]; Escherichia coli, read-out: MIC ELZ4251): 12.5 to 150 µg/mL |
| CCc1c(-c2ccc(N3C[C@@H]4[C@@H](N)[C@@H]4C3)cc2)[nH]c(=O)c(C(=O)O)c1O [Cpd 285, 6-{4-[(1R,5S,6s)-6-amino-3-azabicyclo[3.1.0]hex-3-yl]phenyl}-5-ethyl-4-hydroxy-2-oxo-1,2-dihydropyridine-3-carboxylic acid] | – | – | – | – | – | – | – | – | – | MIC ([10]; Moraxella catarrhalis, read-out: MIC 25238): 1 to 3.5 µg/mL (≈ 2.81 to 9.85 µM); MIC MMX2240 [1]: * (an MIC value between >12.5 μg/mL and ≦150 μg/mL is indicated by a single star (*)); MIC ([11]; Haemophilus influenzae, read-out: MIC 49247): < 1 µg/mL; MIC 27853 [3]: ** (an MIC value between >3.5 μg/mL and ≦12.5 μg/mL is indicated by two stars (**)); MIC ([12]; Neisseria meningitidis, read-out: MIC 13090): < 1 µg/mL; MIC [13]: 12.5 to 150 µg/mL (≈ 35.2 to 422 µM); MIC ELZ4251 [14]: ** (an MIC value between >3.5 μg/mL and ≦12.5 μg/mL is indicated by two stars (**)); MIC 35657 [7]: *** (an MIC value between >1.0 μg/mL and ≦3.5 μg/mL is indicated by three stars (***)) |
| CCc1c(-c2ccc(N3CC[C@@H](F)C3)cc2F)[nH]c(=O)c(C(=O)O)c1O [Cpd 293, 5-ethyl-6-{2-fluoro-4-[(3R)-3-fluoropyrrolidin-1-yl]phenyl}-4-hydroxy-2-oxo-1,2-dihydropyridine-3-carboxylic acid] | – | – | 12.5 to 150 µg/mL (≈ 34.3 to 412 µM) | 12.5 to 150 µg/mL (≈ 34.3 to 412 µM) | 12.5 to 150 µg/mL (≈ 34.3 to 412 µM) | < 1 µg/mL | 12.5 to 150 µg/mL (≈ 34.3 to 412 µM) | 3.5 to 12.5 µg/mL (≈ 9.61 to 34.3 µM) | 3.5 to 12.5 µg/mL (≈ 9.61 to 34.3 µM) | – |
